# Like-named read-outs stand apart in the source and are kept apart here.
# Key:
# [1] = Determination of carbamate half-lives: conversion of carbamate to 4-methoxyphenol in phosphate buffer, HPLC; assay type: physicochemical
# Experimental: […] The resulting solution was heated at 37° while 20 μL samples were removed at intervals and injected directly into the HPLC injection port.
# Unreacted carbamate and 4-methoxyphenol concentrations were determined by HPLC analysis with a C-18 reverse phase column using a mobile phase of 87.5% pH 2.4 phosphoric acid and 12.5% acetonitrile. The UV detector was set at 220 nm. The half-life (t1/2) is the time required for 50% conversion of carbamate to 4-methoxyphenol. Compounds (1), (2) and (3) are the preferred prodrugs for the treatment of melanomas.
# melanoma = conditions: cited from earlier work
# [2] = test system: melanoma cells that contain tyrosinase; conditions: Riley 1985; cited from earlier work
# DNA synthesis = conditions: cited from earlier work
# [3] = after intra-arterial injection; cited from earlier work
# pKa = assay type: physicochemical
# [4] = Partition coefficient, octanol/pH 7.4 buffer; assay type: physicochemical
# [5] = pH 6.8, pH 6.8, 37° (Table I), read-out: t1/2
# [6] = pH 7.4, pH 7.4 phosphate buffer, 37° (Table I), read-out: t1/2 (time required for 50% conversion of carbamate to 4-methoxyphenol)
structure (smiles),measurement,setting,value
COc1ccc(OC(=O)N(C)CCN(C)C)cc1,half-life,[1]; [5],3.23 h
same,half-life,[1]; [6],0.9 h
CCNCCN(CC)C(=O)Oc1ccc(OC)cc1,half-life,[1]; [6],2.38 h
COc1ccc(OC(=O)N(C)CCN)cc1,half-life,[1]; [6],7.7 h
CNCCCN(C)C(=O)Oc1ccc(OC)cc1,half-life,[1]; [6],24.1 h
"COc1ccc(O)cc1 [4-Hydroxyanisole, 4-hydroxyanisole]",results of subsequent studies,melanoma; intra-arterial infusion,more promising results
same,results of early clinical trials,melanoma; intralesional injection or i.v. infusion,disappointing
same,oxidation by tyrosinase and toxicity to melanoma cells,[2],oxidized by tyrosinase to highly cytotoxic products and consequently is preferentially toxic to those melanoma cells that contain the enzyme
same,effect on DNA synthesis,DNA synthesis,inhibits DNA synthesis
same,half-life in blood,[3],9 min
"COc1ccc(OC(=O)NCCCN)cc1.Cl [(5), N-[3-Aminopropyl]carbamic acid 4-methoxyphenyl ester hydrochloride]",half-life,[1]; [6],12 h
COc1ccc(OC(=O)NCCN)cc1 [(6)],half-life,[1]; [6],12.1 h
CNCCNC(=O)Oc1ccc(OC)cc1 [(7)],half-life,[1]; [6],12.4 h
CNCCN(C)C(=O)Oc1ccc(OC)cc1 [Compound IV],pKa,pKa,8.88
same,logD,[4],-1.02
same,half-life,"[1]; pH 7.4, phosphate buffer, pH 7.4 (37°), read-out: half-life of release of 4-hydroxyanisole",0.6 h
CNCCN(C)C(=O)Oc1ccc(OC)cc1 [drawing 8],half-life,[1]; [5],2.33 h
same,half-life,[1]; [6],0.605 h
